From patent US20070209950A1, “METHODS AND DEVICES FOR THE DETECTION AND MEASUREMENT OF FREE METALS IN FLUIDS AND METHODS FOR DIAGNOSING METAL-RELATED DISEASES AND FOR DETERMINING PHARMACOLOGIC DOSING REGIMENS” (priority 2006, published 2007)

Key:
[1] = molecular target: apo-glucose dehydrogenase (Acinetobacter calcoaceticus, UniProt P13650); assay: activation of apo-glucose dehydrogenase by co-factor PQQ, electrochemical current; assay type: biochemical
Source text: FIG. 8 is a schematic showing a specific example of glucose being oxidized to gluconone by the holo-enzyme glucose dehydrogenase. In this case the co-enzyme is PQQ and a common mediator used to transducer electrical current through a working electrode is ferrocene. This is another type of configuration in glucometers today.
FIG. 9 is a schematic showing the loss of glucose dehydrogenase activity when the specific co-factor PQQ is removed. As an apo-enzyme, […] is not capable of oxidizing glucose. As a result, transduction of current is blocked.
PQQ was added to apo-enzyme in doses ranging from 100 pM to 100 nM. […] In this case, distinctions were observed by 60 sec.

ceruloplasmin = molecular target: T1, ceruloplasmin (Homo sapiens, UniProt P00450); conditions: order of magnitude; read-out: Kd for copper bound to ceruloplasmin; cited from earlier work
T1 sequence (P00450 20-1065): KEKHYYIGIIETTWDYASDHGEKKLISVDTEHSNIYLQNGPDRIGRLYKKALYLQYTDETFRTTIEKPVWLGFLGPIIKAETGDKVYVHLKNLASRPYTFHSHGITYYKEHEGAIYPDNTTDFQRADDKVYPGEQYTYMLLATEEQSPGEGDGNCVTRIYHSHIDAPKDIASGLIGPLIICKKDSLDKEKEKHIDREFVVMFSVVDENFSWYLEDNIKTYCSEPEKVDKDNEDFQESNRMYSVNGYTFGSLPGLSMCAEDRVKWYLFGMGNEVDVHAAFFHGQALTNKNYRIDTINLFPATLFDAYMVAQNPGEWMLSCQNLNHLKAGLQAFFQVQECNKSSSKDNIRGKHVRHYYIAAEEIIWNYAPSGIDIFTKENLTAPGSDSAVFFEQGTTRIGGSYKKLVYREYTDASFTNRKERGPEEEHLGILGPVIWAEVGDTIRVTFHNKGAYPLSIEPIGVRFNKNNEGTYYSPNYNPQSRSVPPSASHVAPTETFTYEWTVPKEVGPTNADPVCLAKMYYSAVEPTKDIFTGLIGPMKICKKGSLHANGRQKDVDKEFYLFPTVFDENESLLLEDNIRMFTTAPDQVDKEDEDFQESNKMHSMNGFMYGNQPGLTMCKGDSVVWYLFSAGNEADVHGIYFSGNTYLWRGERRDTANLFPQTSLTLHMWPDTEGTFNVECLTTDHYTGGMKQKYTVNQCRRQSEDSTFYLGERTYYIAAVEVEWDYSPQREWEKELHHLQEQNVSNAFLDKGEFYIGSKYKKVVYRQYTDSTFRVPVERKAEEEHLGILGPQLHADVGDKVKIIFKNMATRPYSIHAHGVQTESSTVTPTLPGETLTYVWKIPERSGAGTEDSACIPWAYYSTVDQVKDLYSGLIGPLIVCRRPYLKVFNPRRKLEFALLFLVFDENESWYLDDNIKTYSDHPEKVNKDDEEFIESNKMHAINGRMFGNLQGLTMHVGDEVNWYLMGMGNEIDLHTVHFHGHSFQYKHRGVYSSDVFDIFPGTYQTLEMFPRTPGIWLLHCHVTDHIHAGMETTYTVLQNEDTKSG

Sequence of apo-glucose dehydrogenase (P13650 25-478): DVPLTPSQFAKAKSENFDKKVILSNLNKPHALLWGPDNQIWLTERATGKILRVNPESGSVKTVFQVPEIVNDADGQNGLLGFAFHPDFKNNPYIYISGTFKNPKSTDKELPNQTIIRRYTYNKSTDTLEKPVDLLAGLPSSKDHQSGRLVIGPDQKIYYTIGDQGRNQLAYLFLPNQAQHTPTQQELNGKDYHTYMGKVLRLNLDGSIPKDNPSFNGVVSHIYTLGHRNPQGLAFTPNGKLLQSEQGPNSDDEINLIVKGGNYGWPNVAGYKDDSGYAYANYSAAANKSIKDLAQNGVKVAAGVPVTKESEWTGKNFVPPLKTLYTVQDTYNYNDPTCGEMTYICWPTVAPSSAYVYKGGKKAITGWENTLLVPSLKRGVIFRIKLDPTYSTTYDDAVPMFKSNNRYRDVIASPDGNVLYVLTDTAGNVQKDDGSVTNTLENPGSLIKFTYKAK

SMILES: O=C(O)c1cc(C(=O)O)c2c(n1)C(=O)C(=O)c1cc(C(=O)O)[nH]c1-2 [PQQ]
- outward current on addition of co-factor ([1]; FIG. 10, with PQQ): outward current (more negative) results
- outward current on addition of co-factor ([1]; FIG. 17, PQQ added to apo-enzyme in doses from 100 pM to 100 nM): increase in the measurement of outward current

SMILES: [Cu] [copper]
- Kd (ceruloplasmin): ~0.01 nM
